For one data set, the system named is HIV. Briefly: Antiviral activity: inhibition of the cytopathic effect of HIV in MT4 cells. Format: cell-based. The text has this:
(§1) The IC50 is the concentration of compound that gives 50% inhibition of the cytopathic effect of HIV. The LC50 is the concentration of compound at which 50% of the cells remain viable.
On the technique in general: Damage to the host cells serves as the signal in cytopathic effect assays.

Data set [1] in a line: Cytotoxicity in MT4 cells (LC50, 50% of the cells remain viable). The data set is classed as cell-based. The settings on record: human.
Excerpt: as §1

A further data set has as its target HIV-1 protease (Human immunodeficiency virus type 1 group M subtype B, UniProt P04585). Briefly: Fluorogenic assay for screening inhibitors of HIV protease. Conditions: for inhibition at 0.0005 µM: pH 4.5, read-out: % Inhib. (0.5 nM); for % Inhib. (0.5 nM): compound concentration 0.5 nM, fluorogenic substrate 1.3 μM, pH 4.5, 30° C.
The next data set concerns MT4 cells. Briefly: Cytotoxicity in MT4 cells (LC50, 50% of the cells remain viable). The data set is classed as cell-based. The settings on record: MT4 cells; concentration at which 50% of the cells remain viable.
Excerpt: as §1

Setting [2] is: Human immunodeficiency virus 1, MT4 cells, 50% inhibition of the cytopathic effect of HIV, read-out: EC50.
The mark [3] stands for this setting: MT4 cells, 50% inhibition of the cytopathic effect of HIV, read-out: EC50.

Read-outs that look alike come from different tables or passages of the source.

Procedure for HIV-1 protease: A compound of the invention is dissolved in DMSO. A small aliquot is diluted with DMSO to 100 times the final concentration desired for testing. The test is carried out in a 6×50 mm tube in a total volume of 300 microliters. The final concentrations of the components in the reaction buffer are: 125 mM sodium acetate, 1 M sodium chloride, 5 mM dithiothreitol, 0.5 mg/ml bovine serum albumin, 1.3 μM fluorogenic substrate, 2% (v/v) dimethylsulfoxide, pH 4.5. After addition of inhibitor, the reaction mixture is placed in the fluorometer cell holder and incubated at 30° C. for several minutes. The reaction is initiated by the addition of a small aliquot of cold HIV protease. The fluorescence intensity (excitation 340 nm, emmision 490 nM) is recorded as a function of time. The reaction rate is determined for the first six to eight minutes. The observed rate is directly proportional to the moles of substrate cleaved per unit time. The percent inhibition is 100×(1- (rate in presence of inhibitor)/(rate in absence of inhibitor)).
The test compounds were then tested at a concentration of 0.5 nM.

As usually defined, the EC50 is the concentration at which the effect is half-maximal. Consider `CC(C)c1nc(CN(C)C(=O)N[C@H](C(=O)N[C@@H](Cc2ccccc2)[C@H](O)CN2CCN(Cc3cncs3)C[C@H]2C(=O)NC(C)(C)C)C(C)C)cs1` [Example 12, N′-[(1S)-1-[[[(1S,2R)-3-[(2S)-2-[[(1,1-Dimethylethyl)amino]carbonyl]-4-(5-thiazolylmethyl)-1-piperazinyl]-2-hydroxy-1-(phenylmethyl)propyl]amino]carbonyl]-2-methylpropyl]-N-methyl-N-[2-(1-methylethyl)-4-thiazolylmethyl]urea], for which, in the data set on HIV (setting [2]), the 50% effective concentration (EC50) was 13 nM. The CC50 in data set [1] was found to be 70300 nM. The inhibition at 0.0005 µM at HIV-1 protease worked out at 61%.
`CC(C)c1nc(CN(C)C(=O)N[C@H](C(=O)N[C@@H](Cc2ccccc2)[C@H](O)CN(C(C)C)S(=O)(=O)c2ccc(N)cc2)C(C)C)cs1` [Example 29, N′-[(1S)-1-[[[(1S,2R)-3-[[(4-Aminophenyl)sulfonyl](1-methylethyl)amino]-2-hydroxy-1-(phenylmethyl)propyl]amino]carbonyl]-2-methylpropyl]-N-methyl-N-[2-(1-methylethyl)-4-thiazolylmethyl]urea]: the 50% effective concentration (EC50) in the data set with HIV (setting [2]) was 175 nM. This molecule had a CC50 in data set [1] of 31200 nM. Moreover, on HIV-1 protease, the inhibition at 0.0005 µM is 64%.
The matching figures for `CC(C)c1nc(CN(C)C(=O)N[C@H](C(=O)N[C@@H](Cc2ccccc2)[C@H](O)CN2CC[C@@H](OCc3cncs3)C[C@H]2C(=O)NC(C)(C)C)C(C)C)cs1` [Example 32, N′-[(1S)-1-[[[(1S,2R)-3-[(2S,4R)-2-[[(1,1-Dimethylethyl)amino]carbonyl]-4-(5-thiazolylmethoxy)-1-piperidinyl]-2-hydroxy-1-(phenylmethyl)propyl]amino]carbonyl]-2-methylpropyl]-N-methyl-N-[2-(1-methylethyl)-4-thiazolylmethyl]urea]: 15 nM, 64100 nM and 66%.
As for `Cc1nc(COC(=O)N[C@H](C(=O)N[C@@H](Cc2ccccc2)[C@H](O)CN2CCN(Cc3ccc(F)cc3)C[C@H]2C(=O)NC(C)(C)C)C(C)C)cs1` [Example 17, 2-Methyl-4-thiazolylmethyl-[(1S)-1-[[[(1S,2R)-3-[(2S)-2-[[(1,1-dimethylethyl)amino]carbonyl]-4-[(4-fluorophenyl)methyl]-1-piperazinyl]-2-hydroxy-1-(phenylmethyl)propyl]amino]carbonyl]-2-methylpropyl]carbamate], the concentration giving a half-maximal response (EC50) in the data set on HIV (setting [3]) was determined as 11 nM. The same molecule returned a CC50 with MT4 cells of 39200 nM. Moreover, on HIV-1 protease, the “% Inhib. (0.5 nM)” value is reported as 50%.
For the molecule `CC(C)c1nc(CN(C)C(=O)N[C@H](C(=O)N[C@@H](Cc2ccccc2)[C@H](O)CN2CCN(Cc3ccccc3)C[C@H]2C(=O)NC(C)(C)C)C(C)C)cs1` [Example 13, N′-[(1S)-1-[[[(1S,2R)-3-[(2S)-2-[[(1,1-Dimethylethyl)amino]carbonyl]-4-(phenylmethyl)-1-piperazinyl]-2-hydroxy-1-(phenylmethyl)propyl]amino]carbonyl]-2-methylpropyl]-N-methyl-N-[2-(1-methylethyl)-4-thiazolylmethyl]urea], in the data set on HIV (setting [2]), the half-maximal effective concentration (EC50) came out at 48 nM. The molecule also returned a CC50 in data set [1] of 60400 nM. In addition, the inhibition at 0.0005 µM on HIV-1 protease came to 66%.
For the molecule `CC(C)[C@H](NC(=O)N(C)Cc1cncs1)C(=O)N[C@@H](Cc1ccccc1)[C@H](O)CN1CCN(Cc2cncs2)C[C@H]1C(=O)NC(C)(C)C` [Example 23, N′-[(1S)-1-[[[(1S,2R)-3-[(2S)-2-[[(1,1-Dimethylethyl)amino]carbonyl]-4-(5-thiazolylmethyl)-1-piperazinyl]-2-hydroxy-1-(phenylmethyl)propyl]amino]carbonyl]-2-methylpropyl]-N-methyl-N-(5-thiazolylmethyl)urea], the EC50 in the data set on HIV (setting [2]) worked out at 259 nM. In addition, in data set [1], the CC50 was above 100000 nM. The inhibition at 0.0005 µM at HIV-1 protease worked out at 51%.
`CC(C)CN(C[C@@H](O)[C@H](Cc1ccccc1)NC(=O)[C@@H](NC(=O)N(C)Cc1csc(C(C)C)n1)C(C)C)C(=O)NC(C)(C)C` [Example 26] returned an EC50 with HIV (Human immunodeficiency virus 1, MT4) of 817 nM. For the same molecule, the CC50 in data set [1] (MT4 cells, concentration at which 50% of the cells remain viable, read-out: LC50 (the source's name)) stood at 17400 nM. The inhibition at 0.0005 µM on HIV-1 protease was found to be 42%.
For the molecule `COc1cc(CN2CCN(C[C@@H](O)[C@H](Cc3ccccc3)NC(=O)[C@@H](NC(=O)N(C)Cc3csc(C(C)C)n3)C(C)C)[C@H](C(=O)NC(C)(C)C)C2)ccc1O` [Example 14, N′-[(1S)-1-[[[(1S,2R)-3-[(2S)-2-[[(1,1-Dimethylethyl)amino]carbonyl]-4-[(4-hydroxy-3-methoxyphenyl)methyl]-1-piperazinyl]-2-hydroxy-1-(phenylmethyl)propyl]amino]carbonyl]-2-methylpropyl]-N-methyl-N-[2-(1-methylethyl)-4-thiazolylmethyl]urea], the 50% effective concentration (EC50) in the data set with HIV (setting [2]) was 41 nM. The CC50 in data set [1] is 22700 nM. Moreover, the inhibition at 0.0005 µM at HIV-1 protease turned out to be 63%.
`CC(C)c1ncc(COC(=O)N[C@H](C(=O)N[C@@H](Cc2ccccc2)[C@H](O)CN2C[C@H]3CCCC[C@H]3C[C@H]2C(=O)NC(C)(C)C)C(C)C)s1` [Example 30, 2-(1-Methylethyl)-5-thiazolylmethyl-[(1S)-1-[[[(1S,2R)-3-[(3S)-3-[[(1,1-dimethylethyl)amino]carbonyl](4aα,8aα)octahydro-2-isoquinolinyl]-2-hydroxy-1-(phenylmethyl)propyl]amino]carbonyl]-2-methylpropyl]carbamate]: the half-maximal effective concentration (EC50) in the data set on HIV (setting [3]) was found to be 20 nM. This molecule had a CC50 in the data set on MT4 cells of 17900 nM. Moreover, the “% Inhib. (0.5 nM)” value on HIV-1 protease amounted to 55%.
Taken in the same sequence, the figures for `CC(C)c1nc(COC(=O)N[C@H](C(=O)N[C@@H](Cc2ccccc2)[C@H](O)CN2CCN(Cc3ccc(O)cc3)C[C@H]2C(=O)NC(C)(C)C)C(C)C)cs1` [Example 8, 2-(1-Methylethyl)-4-thiazolylmethyl-[(1S)-1-[[[(1S,2R)-3-[(2S)-2-[[(1,1-dimethylethyl)amino]carbonyl]-4-[(4-hydroxyphenyl)methyl]-1-piperazinyl]-2-hydroxy-1-(phenylmethyl)propyl]amino]carbonyl]-2-methylpropyl]carbamate] were 47 nM, 18900 nM and 54%.
Taken in the same sequence, the figures for “5-Thiazolylmethyl-[(1S)-1-[[[(1S,2R)-3-[(2S)-2-[[(1,1-dimethylethyl)amino]carbonyl]-4-(phenylmethyl)-1-piperazinyl]-2-hydroxy-1-(phenylmethyl)propyl]amino]carbonyl]-2-methylpropyl]carbamate [Example 24]” were 17 nM, 55400 nM and 40%.
The matching figures for “2-(1-Methylethyl)-4-thiazolylmethyl-[(1S)-1-[[[(1S,2R)-3-[[[(1,1-dimethylethyl)amino]carbonyl](2-methylethyl)propylamino]-2-hydroxy-1-(phenylmethyl)propyl]amino]carbonyl]-2-methylpropyl]carbamate [Example 27]”: 374 nM, 20600 nM and 50%.
For `COc1ccc(CN2CCN(C[C@@H](O)[C@H](Cc3ccccc3)NC(=O)[C@@H](NC(=O)OCc3cnc(C)s3)C(C)C)[C@H](C(=O)NC(C)(C)C)C2)cc1OC` [Example 21, 2-Methyl-5-thiazolylmethyl-[(1S)-1-[[[(1S,2R)-3-[(2S)-4-[(3,4-dimethoxylphenyl)methyl]-2-[[(1,1-dimethylethyl)amino]carbonyl]-1-piperazinyl]-2-hydroxy-1-(phenylmethyl)propyl]amino]carbonyl]-2-methylpropyl]carbamate], the concentration for a half-maximal effect (EC50) with HIV (setting [3]) was 11 nM. In the data set on MT4 cells, this molecule displayed a CC50 of 53000 nM. Also, the “% Inhib. (0.5 nM)” value on HIV-1 protease came to 44%.

The values are drawn from patent US20010008892A1 (priority 1998, published 2001).
